Laboratory results published in publication PMC11785374, “Synergistic effect of inhibiting CHK2 and DNA replication on cancer cell growth” (eLife, 2025).

How the values were obtained:
JNK3 = biological target: T1, JNK3 (Homo sapiens, UniProt P53779); test: radiometric in vitro kinase assay (Eurofins KinaseProfiler); assay type: biochemical
T1 construct: gene MAPK10

AKT1/PKBα = AKT1/PKBα (Homo sapiens, UniProt P31749); test: as above; assay type: biochemical
Aurora-A = biological target: T2, Aurora-A (Homo sapiens, UniProt O14965); test: as above; assay type: biochemical
T2 construct: gene AURKA
T2 sequence (O14965 1-403): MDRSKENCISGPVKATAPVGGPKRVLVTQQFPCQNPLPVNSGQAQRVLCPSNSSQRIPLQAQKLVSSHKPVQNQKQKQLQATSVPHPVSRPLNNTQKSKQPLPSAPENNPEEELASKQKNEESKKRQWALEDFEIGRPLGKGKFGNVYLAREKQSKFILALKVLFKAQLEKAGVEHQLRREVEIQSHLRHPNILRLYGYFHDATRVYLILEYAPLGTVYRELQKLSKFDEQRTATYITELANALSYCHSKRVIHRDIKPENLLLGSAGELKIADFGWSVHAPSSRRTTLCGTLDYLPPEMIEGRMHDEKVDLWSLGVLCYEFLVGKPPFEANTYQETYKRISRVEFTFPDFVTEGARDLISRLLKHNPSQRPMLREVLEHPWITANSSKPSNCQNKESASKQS

CHK2 = biological target: T3, CHK2 (Homo sapiens, UniProt O96017); test: radiometric in vitro kinase assay (Eurofins KinaseProfiler); also CETSA in MCF-7 cells; assay type: biochemical
T3 construct: gene CHEK2

Aurora-B = biological target: T4, Aurora-B (Homo sapiens, UniProt Q96GD4); test: radiometric in vitro kinase assay (Eurofins KinaseProfiler); assay type: biochemical
T4 construct: gene AURKB

[1] = biological target: T5, POLD1 (p125, catalytic subunit of Polδ) (Xenopus laevis, UniProt Q642R8); test: CETSA in Xenopus egg extracts ([…] BKC), western blot; assay type: cell-free
T5 construct: gene pold1.L
T5 sequence (Q642R8 1-1109): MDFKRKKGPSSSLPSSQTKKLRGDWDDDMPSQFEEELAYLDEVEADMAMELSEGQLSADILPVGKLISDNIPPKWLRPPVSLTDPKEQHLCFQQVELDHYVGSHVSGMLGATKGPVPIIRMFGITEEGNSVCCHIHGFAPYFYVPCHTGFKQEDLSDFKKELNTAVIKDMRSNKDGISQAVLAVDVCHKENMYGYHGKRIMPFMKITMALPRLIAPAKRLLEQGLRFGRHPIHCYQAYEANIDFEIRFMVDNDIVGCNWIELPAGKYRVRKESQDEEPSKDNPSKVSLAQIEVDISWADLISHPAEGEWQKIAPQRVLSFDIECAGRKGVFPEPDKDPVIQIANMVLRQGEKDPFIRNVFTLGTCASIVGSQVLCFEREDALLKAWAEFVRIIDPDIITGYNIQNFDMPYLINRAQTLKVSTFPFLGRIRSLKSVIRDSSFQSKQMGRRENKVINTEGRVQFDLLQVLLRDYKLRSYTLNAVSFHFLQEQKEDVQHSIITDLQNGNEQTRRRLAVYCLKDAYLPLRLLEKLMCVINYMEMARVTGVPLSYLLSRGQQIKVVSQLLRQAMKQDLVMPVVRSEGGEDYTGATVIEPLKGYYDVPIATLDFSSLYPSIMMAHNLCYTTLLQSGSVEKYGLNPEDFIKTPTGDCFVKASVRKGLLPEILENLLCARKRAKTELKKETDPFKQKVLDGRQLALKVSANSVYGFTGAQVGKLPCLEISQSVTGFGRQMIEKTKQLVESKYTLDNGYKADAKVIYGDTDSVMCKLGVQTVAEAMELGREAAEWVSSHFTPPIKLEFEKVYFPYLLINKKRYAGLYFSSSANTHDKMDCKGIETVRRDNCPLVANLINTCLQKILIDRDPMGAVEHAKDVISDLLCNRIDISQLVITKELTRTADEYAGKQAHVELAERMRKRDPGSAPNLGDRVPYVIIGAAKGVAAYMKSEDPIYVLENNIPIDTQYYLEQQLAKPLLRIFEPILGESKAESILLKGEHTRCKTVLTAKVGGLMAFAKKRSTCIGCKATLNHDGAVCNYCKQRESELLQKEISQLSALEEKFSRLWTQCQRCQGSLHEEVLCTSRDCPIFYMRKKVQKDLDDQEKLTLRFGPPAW

[2] = biological target: POLE (catalytic subunit of DNA polymerase ε) (Homo sapiens, UniProt Q07864); test: CETSA in MCF-7 cells ([…] BKC), western blot; assay type: cell-based
[3] = biological target: T6, POLD1 (catalytic subunit of DNA polymerase δ) (Homo sapiens, UniProt P28340); test: CETSA in MCF-7 cells ([…] BKC), western blot; assay type: cell-based
T6 sequence (P28340 1-1107): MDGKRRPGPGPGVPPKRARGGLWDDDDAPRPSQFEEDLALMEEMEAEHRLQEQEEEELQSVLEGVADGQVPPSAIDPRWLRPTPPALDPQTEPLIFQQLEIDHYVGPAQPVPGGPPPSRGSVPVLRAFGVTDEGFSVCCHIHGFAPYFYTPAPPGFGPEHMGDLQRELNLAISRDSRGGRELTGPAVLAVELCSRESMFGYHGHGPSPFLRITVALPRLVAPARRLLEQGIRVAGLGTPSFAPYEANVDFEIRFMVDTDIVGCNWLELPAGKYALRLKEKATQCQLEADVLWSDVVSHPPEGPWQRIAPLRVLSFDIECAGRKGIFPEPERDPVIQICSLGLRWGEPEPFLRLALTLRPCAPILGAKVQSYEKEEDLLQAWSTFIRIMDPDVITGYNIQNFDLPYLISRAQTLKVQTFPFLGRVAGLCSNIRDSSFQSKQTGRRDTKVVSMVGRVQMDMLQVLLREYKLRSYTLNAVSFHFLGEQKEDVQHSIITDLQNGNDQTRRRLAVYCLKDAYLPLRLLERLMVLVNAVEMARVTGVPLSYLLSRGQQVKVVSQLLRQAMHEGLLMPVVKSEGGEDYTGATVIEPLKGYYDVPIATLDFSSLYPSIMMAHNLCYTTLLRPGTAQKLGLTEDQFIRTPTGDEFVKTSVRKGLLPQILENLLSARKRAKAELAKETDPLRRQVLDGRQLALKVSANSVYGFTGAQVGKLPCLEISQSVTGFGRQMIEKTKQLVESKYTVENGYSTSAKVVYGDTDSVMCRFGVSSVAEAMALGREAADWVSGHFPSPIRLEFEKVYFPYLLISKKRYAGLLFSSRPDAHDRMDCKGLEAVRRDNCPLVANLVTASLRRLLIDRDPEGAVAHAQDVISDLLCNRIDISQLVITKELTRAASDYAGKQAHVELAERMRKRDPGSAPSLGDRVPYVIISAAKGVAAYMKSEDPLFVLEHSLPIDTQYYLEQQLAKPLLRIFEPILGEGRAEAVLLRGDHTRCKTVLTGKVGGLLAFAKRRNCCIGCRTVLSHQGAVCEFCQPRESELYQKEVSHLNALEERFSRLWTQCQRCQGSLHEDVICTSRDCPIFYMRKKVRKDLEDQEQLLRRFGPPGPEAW

Chain of POLE (catalytic subunit of DNA polymerase ε) (Q07864 whole entry): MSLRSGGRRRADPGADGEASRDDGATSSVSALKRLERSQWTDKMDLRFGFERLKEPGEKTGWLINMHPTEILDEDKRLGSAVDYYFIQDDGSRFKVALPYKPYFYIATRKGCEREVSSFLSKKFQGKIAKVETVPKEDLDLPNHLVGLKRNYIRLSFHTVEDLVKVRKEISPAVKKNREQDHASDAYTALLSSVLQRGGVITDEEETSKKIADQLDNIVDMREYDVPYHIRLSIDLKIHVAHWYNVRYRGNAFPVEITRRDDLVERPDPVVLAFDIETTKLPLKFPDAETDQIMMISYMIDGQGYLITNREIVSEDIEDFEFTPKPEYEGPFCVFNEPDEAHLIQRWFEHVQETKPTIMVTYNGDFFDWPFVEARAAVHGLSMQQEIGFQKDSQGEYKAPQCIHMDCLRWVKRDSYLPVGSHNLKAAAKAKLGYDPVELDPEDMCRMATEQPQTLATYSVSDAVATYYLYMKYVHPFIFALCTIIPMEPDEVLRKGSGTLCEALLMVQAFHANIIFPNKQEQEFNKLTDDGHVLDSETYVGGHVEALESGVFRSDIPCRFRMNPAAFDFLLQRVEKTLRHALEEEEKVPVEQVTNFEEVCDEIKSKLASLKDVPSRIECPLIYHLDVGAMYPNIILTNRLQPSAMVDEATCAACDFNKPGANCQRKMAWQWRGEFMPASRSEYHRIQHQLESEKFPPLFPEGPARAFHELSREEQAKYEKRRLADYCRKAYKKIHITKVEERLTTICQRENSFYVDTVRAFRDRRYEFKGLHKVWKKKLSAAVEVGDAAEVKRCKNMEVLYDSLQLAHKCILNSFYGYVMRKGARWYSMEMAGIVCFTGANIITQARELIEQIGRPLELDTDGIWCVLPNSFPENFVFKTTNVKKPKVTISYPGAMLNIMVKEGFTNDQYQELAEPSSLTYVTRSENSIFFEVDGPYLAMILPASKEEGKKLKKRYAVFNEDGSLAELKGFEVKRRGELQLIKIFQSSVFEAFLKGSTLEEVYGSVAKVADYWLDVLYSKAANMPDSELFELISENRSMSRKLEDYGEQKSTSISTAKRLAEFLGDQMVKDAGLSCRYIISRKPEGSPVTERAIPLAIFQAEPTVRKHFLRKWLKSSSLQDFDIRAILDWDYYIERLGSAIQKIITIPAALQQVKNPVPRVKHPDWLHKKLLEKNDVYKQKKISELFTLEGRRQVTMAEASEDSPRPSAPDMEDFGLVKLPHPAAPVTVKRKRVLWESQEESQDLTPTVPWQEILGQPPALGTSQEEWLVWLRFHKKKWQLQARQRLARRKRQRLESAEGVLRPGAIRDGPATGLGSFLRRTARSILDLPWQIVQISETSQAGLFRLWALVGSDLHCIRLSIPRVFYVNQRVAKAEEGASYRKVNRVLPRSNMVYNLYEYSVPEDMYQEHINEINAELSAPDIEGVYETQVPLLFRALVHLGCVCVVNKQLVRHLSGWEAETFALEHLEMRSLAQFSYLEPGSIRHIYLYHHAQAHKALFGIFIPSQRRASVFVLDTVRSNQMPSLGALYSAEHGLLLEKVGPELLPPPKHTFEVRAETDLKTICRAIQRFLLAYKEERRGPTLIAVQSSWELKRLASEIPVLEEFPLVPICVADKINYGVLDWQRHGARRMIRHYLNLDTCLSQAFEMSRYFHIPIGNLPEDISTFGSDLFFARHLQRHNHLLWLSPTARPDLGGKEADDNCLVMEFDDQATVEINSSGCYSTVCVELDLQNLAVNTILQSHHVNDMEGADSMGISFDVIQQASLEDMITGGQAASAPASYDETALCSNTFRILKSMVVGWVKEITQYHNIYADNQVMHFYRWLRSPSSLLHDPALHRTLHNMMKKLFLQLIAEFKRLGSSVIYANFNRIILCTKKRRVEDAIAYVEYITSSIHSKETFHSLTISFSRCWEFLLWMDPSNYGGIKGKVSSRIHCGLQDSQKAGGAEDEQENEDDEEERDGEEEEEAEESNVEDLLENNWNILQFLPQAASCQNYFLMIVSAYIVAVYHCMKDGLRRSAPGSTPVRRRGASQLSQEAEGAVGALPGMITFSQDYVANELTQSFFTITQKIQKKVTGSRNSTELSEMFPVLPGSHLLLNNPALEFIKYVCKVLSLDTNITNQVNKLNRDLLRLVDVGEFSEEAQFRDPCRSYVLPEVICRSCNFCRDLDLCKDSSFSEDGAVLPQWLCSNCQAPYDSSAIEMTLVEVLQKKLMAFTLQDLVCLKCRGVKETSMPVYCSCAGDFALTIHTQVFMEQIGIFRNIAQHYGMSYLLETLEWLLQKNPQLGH
T1 sequence (P53779 whole entry): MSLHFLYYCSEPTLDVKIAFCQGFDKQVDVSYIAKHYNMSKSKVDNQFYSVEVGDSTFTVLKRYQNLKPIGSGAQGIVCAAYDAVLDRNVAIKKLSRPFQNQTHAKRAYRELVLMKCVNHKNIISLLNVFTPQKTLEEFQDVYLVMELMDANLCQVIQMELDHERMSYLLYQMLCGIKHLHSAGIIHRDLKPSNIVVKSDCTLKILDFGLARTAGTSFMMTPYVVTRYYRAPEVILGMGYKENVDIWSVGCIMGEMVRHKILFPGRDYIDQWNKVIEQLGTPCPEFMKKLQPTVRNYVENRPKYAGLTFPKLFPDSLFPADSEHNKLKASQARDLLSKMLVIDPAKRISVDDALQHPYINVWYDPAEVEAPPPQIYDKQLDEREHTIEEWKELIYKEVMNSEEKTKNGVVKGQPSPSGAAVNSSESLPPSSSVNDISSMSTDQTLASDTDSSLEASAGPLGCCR
Chain of AKT1/PKBα (P31749 whole entry): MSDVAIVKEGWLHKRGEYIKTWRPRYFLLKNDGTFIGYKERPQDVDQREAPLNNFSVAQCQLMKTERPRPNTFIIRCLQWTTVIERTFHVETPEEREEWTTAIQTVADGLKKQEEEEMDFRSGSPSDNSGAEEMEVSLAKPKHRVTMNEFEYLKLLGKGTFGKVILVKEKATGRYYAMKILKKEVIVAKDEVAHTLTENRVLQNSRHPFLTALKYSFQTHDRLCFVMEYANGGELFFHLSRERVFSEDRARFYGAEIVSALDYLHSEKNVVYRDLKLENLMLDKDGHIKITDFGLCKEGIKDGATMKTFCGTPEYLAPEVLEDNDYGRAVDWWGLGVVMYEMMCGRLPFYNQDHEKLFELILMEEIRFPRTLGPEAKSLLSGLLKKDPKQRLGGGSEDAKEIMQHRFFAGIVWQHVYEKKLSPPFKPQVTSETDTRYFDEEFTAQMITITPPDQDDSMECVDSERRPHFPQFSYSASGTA
T3 sequence (O96017 whole entry): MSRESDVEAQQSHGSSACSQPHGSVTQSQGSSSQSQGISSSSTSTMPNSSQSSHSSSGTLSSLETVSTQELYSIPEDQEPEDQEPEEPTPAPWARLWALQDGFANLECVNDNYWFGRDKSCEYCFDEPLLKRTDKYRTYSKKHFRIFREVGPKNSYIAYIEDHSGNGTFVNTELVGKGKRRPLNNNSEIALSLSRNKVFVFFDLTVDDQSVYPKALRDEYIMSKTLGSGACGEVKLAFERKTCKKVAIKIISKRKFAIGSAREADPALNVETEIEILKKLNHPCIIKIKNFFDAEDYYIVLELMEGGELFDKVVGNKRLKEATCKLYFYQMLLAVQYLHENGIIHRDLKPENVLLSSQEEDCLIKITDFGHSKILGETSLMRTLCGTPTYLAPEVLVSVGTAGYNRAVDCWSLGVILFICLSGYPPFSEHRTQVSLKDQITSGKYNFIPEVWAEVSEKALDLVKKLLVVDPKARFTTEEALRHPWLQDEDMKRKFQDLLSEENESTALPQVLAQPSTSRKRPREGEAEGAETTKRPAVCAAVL
T4 sequence (Q96GD4 whole entry): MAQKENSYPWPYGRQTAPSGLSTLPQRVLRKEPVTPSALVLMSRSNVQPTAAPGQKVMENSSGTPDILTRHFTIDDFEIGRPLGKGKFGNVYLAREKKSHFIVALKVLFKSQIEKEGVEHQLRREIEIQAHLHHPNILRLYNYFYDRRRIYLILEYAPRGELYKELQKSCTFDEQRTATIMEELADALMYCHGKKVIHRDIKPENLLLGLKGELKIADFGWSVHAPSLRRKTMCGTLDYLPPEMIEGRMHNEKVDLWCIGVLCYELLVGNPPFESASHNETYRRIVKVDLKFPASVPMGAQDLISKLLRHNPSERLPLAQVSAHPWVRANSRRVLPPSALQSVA

IC50 (JNK3) [µM] | IC50 (AKT1/PKBα) [µM] | IC50 (Aurora-A) [µM] | IC50 (CHK2) [µM] | IC50 (Aurora-B) [µM] | Compound | CETSA in Xenopus egg extracts (40 μM BKC), western blot [1] | CETSA in MCF-7 cells (40 μM BKC), western blot [2] | CETSA in MCF-7 cells (40 μM BKC), western blot [3]
16.4 | 56.7 | 11.2 | 3.5 | 11.2 | CC(C)=CCc1c(O)ccc(C(=O)/C=C/c2ccc(O)cc2)c1O [IBC, Isobavachalcone] |  |  | 
 |  |  |  |  | C=C[C@@](C)(/C=C/c1ccc(O)cc1)CCC=C(C)C [BKC, Bakuchiol] | BKC specifically stabilize the catalytic subunit POLD1 of Polδ, but not that of the accessory subunit POLD3 in Xenopus | BKC interacts with the catalytic subunits of Polδ and Polε in MCF-7 cells | BKC interacts with the catalytic subunits of Polδ and Polε in MCF-7 cells
